Experiments:
[1] = test system: adult hippocampal neural stem cells (HCN cells); experiment: Cell death assay (Hoechst 33342/PI) of stress hormone (CORT)-induced death of adult hippocampal neural stem cells; type: cell-based, rat; details: 50 nM RITA (3 h pre-treatment, then with 200 μM CORT), 48 hours, FIG. 1
Method: First, adult hippocampal neural stem cells (HCN cells; hereinafter, referred to as “HCN”) were isolated from an 8-week-old female Sprague-Dawley rat (SD rat). Afterward, the isolated hippocampal neural stem cells were incubated using a serum-free medium containing Dulbecco's modified Eagle's medium (DMEM)/F-12 to which N2 and basic fibroblast growth factor (bFGF; PeproTech) were added in a 37° C. incubator. The cells were subcultured every 3 or 4 days. The subcultured neural stem cells were put into a 96-well plate at 1.5×10^5 cells/ml, 50 nM RITA was treated together with 200 μM corticosterone (CORT), and cell death was confirmed after 48 hours. Before CORT treatment, 50 nM RITA was pre-treated for 3 hours and then treated again along with CORT. For cell death assay, the cells were stained with Hoechst 33342 (Invitrogen) and propidium iodide (PI; Sigma) and photographed by a fluorescence microscope (Axiovert 40 CFL; Carl Zeiss), and the percentage of cell death was calculated by the following cell death (%) equation. Cell death (%)=(the number of PI[red]−positive cells/the number of Hoechst [blue]−positive cells)×100

[2] = test system: hippocampal neural stem cells; experiment: Neural stem cell protection in chronic restraint stress (CRS) mouse, SOX2/Ki67 immunohistochemistry of hippocampus; type: in vivo; details: 10 mg/kg intraperitoneally for 10 days, CRS 7 days, FIG. 2
Method: An 8-week-old male C57BL/6 mouse was subjected to chronic restraint stress (CRS) using a restrainer from 10 AM to 4 PM daily for 7 days. RITA (10 mg/kg) was intraperitoneally injected using a 1-ml syringe at 9:30 AM for 10 days from 3 days before the stress experience. To confirm the number of hippocampal neural stem cells in the RITA-injected mouse, the control and the stress-experiencing mice were anesthetized by injecting the neuro-anesthetic Zoletil and the muscle anesthetic Rompun to isolate brain tissue. Afterward, the brain tissue was frozen with an optimal cutting temperature compound after fixing the brain with 4% paraformaldehyde (PFA). To perform immunohistochemistry, the frozen brain was cut in the coronal plane to a thickness of 40 μm, and then a neural stem cell indicator, SOX2, and a cell proliferation indicator, Ki67 protein, were labeled with Alexa488 or Alexa555 and stained. The number of fluorescence-expressing cells in the hippocampus of the stained brain was detected using a Confocal 780 microscope (Zeiss), and the result is shown in FIG. 2. As a control, oil, which is a medium in which RITA is dissolved, was injected.

[3] = test system: C57BL/6 mouse subjected to chronic restraint stress; experiment: Open field test, anxiety-related behavior in CRS mouse; type: in vivo; details: open field test 20 minutes, 10 mg/kg intraperitoneally, FIG. 3
Method: (§1) An 8-week-old male C57BL/6 mouse was subjected to chronic restraint stress (CRS) using a restrainer from 10 AM to 4 PM daily for 7 days. RITA (10 mg/kg) was intraperitoneally injected using a 1-ml syringe at 9:30 AM for 10 days from 3 days before the stress experience. Specifically, to measure anxiety-related behavior, an open field test was performed. The degree of anxiety was measured by observing a staying rate during a staying time in the middle in a square with a size of 40×40 cm^2 for 20 minutes. In addition, to measure spatial memory ability, a Y-Maze test was performed. The degree of spatial memory ability was measured by measuring the rate (arm alteration) entering each passage while freely moving in a Y-shaped maze space composed of three passages for 6 minutes.

[4] = test system: C57BL/6 mouse subjected to chronic restraint stress; experiment: Y-Maze test, spatial memory in CRS mouse; type: in vivo; details: Y-Maze test 6 minutes (arm alteration), 10 mg/kg intraperitoneally, FIG. 4
Method: as §1

OCc1ccc(-c2ccc(-c3ccc(CO)s3)o2)s1 [RITA, 2,5-bis[5-hydroxymethyl-2-thienyl] furan]
death of neural stem cells caused by a stress hormone [1]: inhibits the death of neural stem cells
number of cells expressing Ki67 (cell proliferation indicator) decreased by stress [2]: considerably increased compared to the control
number of cells expressing SOX2 (stem cell indicator) decreased by stress [2]: considerably increased compared to the control
anxiety disorder-related behavior caused by stress experience [3]: prevented
spatial memory disability caused by stress experience [4]: prevented

Reference: US12558344B2, “Composition for preventing or treating brain-nervous system diseases comprising rita or derivatives thereof” (priority 2019, dated 2026)
